Laboratory results: PubChem BioAssay AID1259407 (Chemical Carcinogenesis Research Information System (CCRIS), 2018)
Calls of active or inactive are those of the source. How the calls were made is not given here.

System: CCRIS mutagenicity, Ames/micronucleus/aberration tests
Assay: CCRIS mutagenicity studies

In the case of `CC(C)CON=O`, the mutagenic call (Test System: AMES SALMONELLA TYPHIMURIUM, Strain/Indicator: TA98, Metabolic Activation: HAMSTER, LIVER, S-9, AROCLOR 1254 (5 OR 10%), Method: PREINCUBATION) is reported as “inactive; negative”, the mutagenic call (Test System: AMES SALMONELLA TYPHIMURIUM, Strain/Indicator: TA98, Metabolic Activation: HAMSTER, LIVER, S-9, AROCLOR 1254 (30%), Method: PREINCUBATION) is reported as “inactive; negative” and the mutagenic call (Test System: AMES SALMONELLA TYPHIMURIUM, Strain/Indicator: TA98, Metabolic Activation: HAMSTER, LIVER, S-9, AROCLOR 1254, Method: STANDARD PLATE) is reported as “inactive; negative”. The mutagenic call (Test System: AMES SALMONELLA TYPHIMURIUM, Strain/Indicator: TA98, Metabolic Activation: NONE, Method: DESICCATOR) was “inactive; negative”, the mutagenic call (Test System: AMES SALMONELLA TYPHIMURIUM, Strain/Indicator: TA98, Metabolic Activation: NONE, Method: FLUCTUATION (MICROTITER)) was “inactive; negative” and the mutagenic call (Test System: AMES SALMONELLA TYPHIMURIUM, Strain/Indicator: TA98, Metabolic Activation: NONE, Method: PREINCUBATION) was “inactive; negative”. The mutagenic call (Test System: AMES SALMONELLA TYPHIMURIUM, Strain/Indicator: TA98, Metabolic Activation: NONE, Method: STANDARD PLATE) was “inactive; negative”, the mutagenic call (Test System: AMES SALMONELLA TYPHIMURIUM, Strain/Indicator: TA98, Metabolic Activation: RAT LIVER S-9, AROCLOR 1254, Method: FLUCTUATION (MICROTITER)) was “inactive; negative” and the mutagenic call (Test System: AMES SALMONELLA TYPHIMURIUM, Strain/Indicator: TA98, Metabolic Activation: RAT, LIVER, S-9, AROCLOR 1254 (5 OR 10%), Method: PREINCUBATION) was “inactive; negative”. The mutagenic call (Test System: AMES SALMONELLA TYPHIMURIUM, Strain/Indicator: TA98, Metabolic Activation: RAT, LIVER, S-9, AROCLOR 1254 (30%), Method: PREINCUBATION) was “inactive; negative”, the mutagenic call (Test System: AMES SALMONELLA TYPHIMURIUM, Strain/Indicator: TA98, Metabolic Activation: RAT, LIVER, S-9, AROCLOR 1254, Method: DESICCATOR) was “inactive; negative” and the mutagenic call (Test System: AMES SALMONELLA TYPHIMURIUM, Strain/Indicator: TA98, Metabolic Activation: RAT, LIVER, S-9, AROCLOR 1254, Method: STANDARD PLATE) was “inactive; negative”. For the same molecule, the mutagenic call (Test System: AMES SALMONELLA TYPHIMURIUM, Strain/Indicator: TA100, Metabolic Activation: HAMSTER, LIVER, S-9, AROCLOR 1254 (10%), Method: PREINCUBATION) was “active; positive”, the mutagenic call (Test System: AMES SALMONELLA TYPHIMURIUM, Strain/Indicator: TA100, Metabolic Activation: HAMSTER, LIVER, S-9, AROCLOR 1254 (30%), Method: PREINCUBATION) was “active; positive” and the mutagenic call (Test System: AMES SALMONELLA TYPHIMURIUM, Strain/Indicator: TA100, Metabolic Activation: HAMSTER, LIVER, S-9, AROCLOR 1254, Method: STANDARD PLATE) was “active; positive”. For the same molecule, the mutagenic call (Test System: AMES SALMONELLA TYPHIMURIUM, Strain/Indicator: TA100, Metabolic Activation: NONE, Method: PREINCUBATION) was “inactive; negative”, the mutagenic call (Test System: AMES SALMONELLA TYPHIMURIUM, Strain/Indicator: TA100, Metabolic Activation: NONE, Method: STANDARD PLATE) was “active; positive” and the mutagenic call (Test System: AMES SALMONELLA TYPHIMURIUM, Strain/Indicator: TA100, Metabolic Activation: RAT, LIVER, S-9, AROCLOR 1254 (10%), Method: PREINCUBATION) was “active; positive”. The mutagenic call (Test System: AMES SALMONELLA TYPHIMURIUM, Strain/Indicator: TA100, Metabolic Activation: RAT, LIVER, S-9, AROCLOR 1254 (30%), Method: PREINCUBATION) was “active; positive”, the mutagenic call (Test System: AMES SALMONELLA TYPHIMURIUM, Strain/Indicator: TA100, Metabolic Activation: RAT, LIVER, S-9, AROCLOR 1254, Method: DESICCATOR) was “active; positive” and the mutagenic call (Test System: AMES SALMONELLA TYPHIMURIUM, Strain/Indicator: TA100, Metabolic Activation: RAT, LIVER, S-9, AROCLOR 1254, Method: STANDARD PLATE) was “active; positive”. The mutagenic call (Test System: AMES SALMONELLA TYPHIMURIUM, Strain/Indicator: TA1535, Metabolic Activation: HAMSTER, LIVER, S-9, AROCLOR 1254 (10%), Method: PREINCUBATION) was “active; positive”, the mutagenic call (Test System: AMES SALMONELLA TYPHIMURIUM, Strain/Indicator: TA1535, Metabolic Activation: HAMSTER, LIVER, S-9, AROCLOR 1254 (30%), Method: PREINCUBATION) was “active; positive” and the mutagenic call (Test System: AMES SALMONELLA TYPHIMURIUM, Strain/Indicator: TA1535, Metabolic Activation: HAMSTER, LIVER, S-9, AROCLOR 1254, Method: STANDARD PLATE) was “active; positive”. The mutagenic call (Test System: AMES SALMONELLA TYPHIMURIUM, Strain/Indicator: TA1535, Metabolic Activation: NONE, Method: DESICCATOR) was “active; positive”, the mutagenic call (Test System: AMES SALMONELLA TYPHIMURIUM, Strain/Indicator: TA1535, Metabolic Activation: NONE, Method: STANDARD PLATE) was “active; positive” and the mutagenic call (Test System: AMES SALMONELLA TYPHIMURIUM, Strain/Indicator: TA1535, Metabolic Activation: RAT, LIVER, S-9, AROCLOR 1254 (10%), Method: PREINCUBATION) was “inactive; negative”. For the same molecule, the mutagenic call (Test System: AMES SALMONELLA TYPHIMURIUM, Strain/Indicator: TA1535, Metabolic Activation: RAT, LIVER, S-9, AROCLOR 1254 (30%), Method: PREINCUBATION) was “active; positive”, the mutagenic call (Test System: AMES SALMONELLA TYPHIMURIUM, Strain/Indicator: TA1535, Metabolic Activation: RAT, LIVER, S-9, AROCLOR 1254, Method: DESICCATOR) was “active; positive” and the mutagenic call (Test System: AMES SALMONELLA TYPHIMURIUM, Strain/Indicator: TA1535, Metabolic Activation: RAT, LIVER, S-9, AROCLOR 1254, Method: PREINCUBATION) was “active; positive”. For the same molecule, the mutagenic call (Test System: AMES SALMONELLA TYPHIMURIUM, Strain/Indicator: TA1535, Metabolic Activation: RAT, LIVER, S-9, AROCLOR 1254, Method: STANDARD PLATE) was “active; positive”, the mutagenic call (Test System: AMES SALMONELLA TYPHIMURIUM, Strain/Indicator: TA1537, Metabolic Activation: HAMSTER, LIVER, S-9, AROCLOR 1254 (10%), Method: PREINCUBATION) was “inactive; negative” and the mutagenic call (Test System: AMES SALMONELLA TYPHIMURIUM, Strain/Indicator: TA1537, Metabolic Activation: HAMSTER, LIVER, S-9, AROCLOR 1254, Method: STANDARD PLATE) was “inactive; negative”. For the same molecule, the mutagenic call (Test System: AMES SALMONELLA TYPHIMURIUM, Strain/Indicator: TA1537, Metabolic Activation: NONE, Method: FLUCTUATION (MICROTITER)) was “inactive; negative”, the mutagenic call (Test System: AMES SALMONELLA TYPHIMURIUM, Strain/Indicator: TA1537, Metabolic Activation: NONE, Method: PREINCUBATION) was “inactive; negative” and the mutagenic call (Test System: AMES SALMONELLA TYPHIMURIUM, Strain/Indicator: TA1537, Metabolic Activation: NONE, Method: STANDARD PLATE) was “inactive; negative”. For the same molecule, the mutagenic call (Test System: AMES SALMONELLA TYPHIMURIUM, Strain/Indicator: TA1537, Metabolic Activation: RAT LIVER S-9, AROCLOR 1254, Method: FLUCTUATION (MICROTITER)) was “inactive; negative”, the mutagenic call (Test System: AMES SALMONELLA TYPHIMURIUM, Strain/Indicator: TA1537, Metabolic Activation: RAT, LIVER, S-9, AROCLOR 1254 (10%), Method: PREINCUBATION) was “inactive; negative” and the mutagenic call (Test System: AMES SALMONELLA TYPHIMURIUM, Strain/Indicator: TA1537, Metabolic Activation: RAT, LIVER, S-9, AROCLOR 1254, Method: STANDARD PLATE) was “inactive; negative”. For the same molecule, the mutagenic call (Test System: AMES SALMONELLA TYPHIMURIUM, Strain/Indicator: TA7001, Metabolic Activation: NONE, Method: FLUCTUATION (MICROTITER)) was “inactive; negative”, the mutagenic call (Test System: AMES SALMONELLA TYPHIMURIUM, Strain/Indicator: TA7001, Metabolic Activation: RAT LIVER S-9, AROCLOR 1254, Method: FLUCTUATION (MICROTITER)) was “inactive; negative” and the mutagenic call (Test System: AMES SALMONELLA TYPHIMURIUM, Strain/Indicator: TA7002, Metabolic Activation: NONE, Method: FLUCTUATION (MICROTITER)) was “inactive; negative”. For the same molecule, the mutagenic call (Test System: AMES SALMONELLA TYPHIMURIUM, Strain/Indicator: TA7002, Metabolic Activation: RAT LIVER S-9, AROCLOR 1254, Method: FLUCTUATION (MICROTITER)) was “inactive; negative”, the mutagenic call (Test System: AMES SALMONELLA TYPHIMURIUM, Strain/Indicator: TA7003, Metabolic Activation: NONE, Method: FLUCTUATION (MICROTITER)) was “inactive; negative” and the mutagenic call (Test System: AMES SALMONELLA TYPHIMURIUM, Strain/Indicator: TA7003, Metabolic Activation: RAT LIVER S-9, AROCLOR 1254, Method: FLUCTUATION (MICROTITER)) was “inactive; negative”. For the same molecule, the mutagenic call (Test System: AMES SALMONELLA TYPHIMURIUM, Strain/Indicator: TA7004, Metabolic Activation: NONE, Method: FLUCTUATION (MICROTITER)) was “inactive; negative”, the mutagenic call (Test System: AMES SALMONELLA TYPHIMURIUM, Strain/Indicator: TA7004, Metabolic Activation: RAT LIVER S-9, AROCLOR 1254, Method: FLUCTUATION (MICROTITER)) was “inactive; negative” and the mutagenic call (Test System: AMES SALMONELLA TYPHIMURIUM, Strain/Indicator: TA7005, Metabolic Activation: NONE, Method: FLUCTUATION (MICROTITER)) was “inactive; negative”. The mutagenic call (Test System: AMES SALMONELLA TYPHIMURIUM, Strain/Indicator: TA7005, Metabolic Activation: RAT LIVER S-9, AROCLOR 1254, Method: FLUCTUATION (MICROTITER)) was “inactive; negative”, the mutagenic call (Test System: AMES SALMONELLA TYPHIMURIUM, Strain/Indicator: TA7006, Metabolic Activation: NONE, Method: FLUCTUATION (MICROTITER)) was “inactive; negative” and the mutagenic call (Test System: AMES SALMONELLA TYPHIMURIUM, Strain/Indicator: TA7006, Metabolic Activation: RAT LIVER S-9, AROCLOR 1254, Method: FLUCTUATION (MICROTITER)) was “inactive; negative”. For the same molecule, the mutagenic call (Test System: MOUSE LYMPHOMA, Strain/Indicator: L5178Y (TK+/TK-), Metabolic Activation: NONE, Method: SUSPENSION/PLATE) was “active; positive”, the mutagenic call (Test System: MOUSE LYMPHOMA, Strain/Indicator: L5178Y (TK+/TK-), Metabolic Activation: RAT, LIVER, S-9, AROCLOR 1254, Method: SUSPENSION/PLATE) was “active; positive” and the mutagenic call (Test System: Mouse lymphoma, Strain/Indicator: L5178Y (tk+/tk-), Metabolic Activation: Rat, Liver, S-9, Aroclor 1254, Method: Suspension/plate) was “active; positive”.
